From paper PMC10980656 (CNS Drugs, 2024)
Counter-ions that a name gives are not always drawn. Like-named read-outs stand apart in the source and are kept apart here.

Legend:
healthy women and men = details: mild
clinical = details: both, human, in vivo; for AUC(0-t): AUC0–tz (geoMean); for Cmax: Cmax (geoMean), healthy subjects
[1] = repeated freeze/thaw cycles, short- (24 h) and long-term (30 day) storage; cited from earlier work
[2] = cited from earlier work
[3] = iv, 30 mg, plasma, single IV 30 mg fasudil over 30 min

Tmax (clinical; iv, 30 mg) [min] | AUC(0-t) (clinical; [3]) [ng·h/mL] | Cmax (clinical; [3]) [ng/mL] | Tmax (clinical; po, 30 mg) [min] | AUC0–tz LS mean ratio (oral/IV treatment) point estimate (90% CI) (both, human, in vivo) | AUC0–∞ LS mean ratio (oral/IV treatment) point estimate (90% CI) (both, human, in vivo) | hydroxyfasudil concentration after oral treatment compared with IV treatment (linear mixed-effect model of the full analysis set) [%] | Cmax LS mean ratio (oral/IV treatment) point estimate (90% CI) (linear mixed-effects model) | half-life (clinical; iv) [min] | AUC(0-inf) (clinical; iv, 30 mg, AUC0–∞ (geoMean), plasma, single IV 30 mg fasudil over 30 min) [ng·h/mL] | half-life (clinical; po, 30 mg) [min] | SMILES | subjects with TEAE assessed as related to the IMP ("headache") (healthy women and men; IV treatment, one subject, recovered/resolved) [%] | treatment emergent adverse events (TEAEs), oral treatment (healthy women and men; oral fasudil, "fatigue", not related to the IMP) | sample stability (human plasma) [1] [%] | serum half-life ([2]; after IV administration of fasudil) [min] | exposure (AUC) ([2]; after IV applications (30 mg fasudil over 30 min)) [ng·h/mL] | exposure (AUC) ([2]; investigational oral solution, 40 mg fasudil hydrochloride) [ng·h/mL]
22.5 | 55.6 | 101 | 15 | – | – | – | – | – | – | – | O=S(=O)(c1cccc2cnccc12)N1CCCNCC1 [fasudil, fasudil hydrochloride, reference compound] | 7.1 | One TEAE | – | – | – | –
45 | 439 | 108 | 30 | 64.52 (60.32–69.01) % | 64.76 (60.11–69.78) % | 65 | 102.97 (89.53–118.43) % | 342 | 460 | 332 | O=S(=O)(c1cccc2c(O)nccc12)N1CCCNCC1 [hydroxyfasudil] | – | – | > 94 | 100 to 200 | 400 to 555 | 300
